Assay results from patent US5516777A, “Condensed pyrazole derivatives, and androgen inhibitor” (Otsuka Pharmaceutical Co., Ltd., priority 1992, dated 1996).

Legend:
[1] = molecular target: T1, rat prostate androgen receptor (Rattus norvegicus, UniProt P15207); settings: 1 nM ^3 H-mibolerone, 20 hours at 0° C., rat ventral prostate cytosol; read-out: Inhibitory activity on mibolerone specific binding [IC50 (M)]
T1 sequence (P15207 1-902): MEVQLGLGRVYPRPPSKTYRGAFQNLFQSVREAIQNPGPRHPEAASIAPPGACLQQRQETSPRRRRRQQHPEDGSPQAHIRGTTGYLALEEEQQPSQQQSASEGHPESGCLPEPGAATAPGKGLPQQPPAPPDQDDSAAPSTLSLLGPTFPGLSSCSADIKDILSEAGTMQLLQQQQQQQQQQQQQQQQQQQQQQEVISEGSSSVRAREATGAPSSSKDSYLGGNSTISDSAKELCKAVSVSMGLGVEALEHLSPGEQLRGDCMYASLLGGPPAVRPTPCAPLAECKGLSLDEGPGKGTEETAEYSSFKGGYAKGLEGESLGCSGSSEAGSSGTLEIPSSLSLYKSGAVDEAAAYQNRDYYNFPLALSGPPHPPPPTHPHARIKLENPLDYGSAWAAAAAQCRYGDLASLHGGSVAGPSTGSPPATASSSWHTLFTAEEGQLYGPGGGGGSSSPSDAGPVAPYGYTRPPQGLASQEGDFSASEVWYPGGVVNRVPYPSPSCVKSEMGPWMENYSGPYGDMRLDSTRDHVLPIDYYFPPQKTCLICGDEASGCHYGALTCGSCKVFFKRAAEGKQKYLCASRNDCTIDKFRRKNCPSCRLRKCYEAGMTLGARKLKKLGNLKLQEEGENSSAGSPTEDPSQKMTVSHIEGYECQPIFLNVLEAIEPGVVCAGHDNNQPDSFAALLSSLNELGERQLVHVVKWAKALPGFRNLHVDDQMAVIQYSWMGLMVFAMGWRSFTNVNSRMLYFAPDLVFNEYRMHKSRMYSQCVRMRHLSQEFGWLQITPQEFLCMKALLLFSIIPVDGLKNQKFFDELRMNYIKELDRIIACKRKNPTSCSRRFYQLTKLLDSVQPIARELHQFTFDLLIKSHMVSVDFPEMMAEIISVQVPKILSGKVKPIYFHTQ
Description: Assay of inhibitory activity to binding of ^3 H-mibolerone on rat prostate androgen receptor
(1) Preparation of Cytosol from Rat Prostate
The rats were killed 24 hours after castration, and the ventral prostate glands were removed, and was gently homogenized, with three volume of buffer solution A (1.5 mM EDTA, 2 mM dithiothreitol, 10 mM molybdate sodium, 10% by volume of glycerol, 10 mM NaF, 25 mM phosphate sodium, pH 7.2) on ice-water bath, in Polytron, and Potter type homogenizer. The obtained homogenate was filtrated through double gauze, and centrifuged at 105,000×g for 60 minutes at 4° C., and the supernatant was obtained as cytoplasm fraction.
(2) Measurement of Specific binding of ^3 H-mibolerone to Prostate Cytoplasm Androgen Receptor
To the cytoplasm fraction obtained in (1) was added ^3 H-mibolerone (87.0 Ci/millimol), so that a final concentration is adjusted to 1 nM, and at the same time, in order to block binding of ^3 H-mibolerone to progestin receptor, triamsinolone acetonide was added to a final concentration of 5 μM, and the final volume was adjusted to 0.4 ml with buffer solution A, and the reaction mixture was incubated for 20 hours at 0° C. After incubation, 0.5 ml of 60% hydroxylapatite slurry (washed and equilibrate with a buffer solution B: 10 mM NaH2 PO4, 20 mM tris-hydrochloric acid, pH 7.2) was added, and incubated for 10 minutes at 0° C., the solution was transferred onto a glass fiber filter, and washed five times with 5 ml portions of buffer solution B containing 0.1% (weight/volume) of Triton X-100, to remove free ^3 H-mibolerone. This glass fiber was transferred into vial, and 10 ml of aquasol- 2 was added, and the radioactivity was measured, and the total binding amount of ^3 H-mibolerone on prostate cytoplasm androgen receptor was determined.
The nonspecific binding amount was determined similarly by adding an unlabeled 5α-DHT in the reaction solution to a final concentration of 1 μM. The difference between the total binding amount and nonspecific binding amount was determined as the specific binding amount on the androgen receptor.
(3) Inhibitory Activity of Sample Compounds on ^3 H-mibolerone Specific Binding
The various concentrations of compounds obtained in the experiments were added simultaneously with ^3 H-mibolerone to incubate same as in (2), and the specific binding amount of ^3 H-mibolerone on androgen receptor was determined. Comparing this value with the value obtained in (2), the IC50 value of inhibitory activity of the compounds on ^3 H-mibolerone specific binding was determined.

[2] = In vitro drug metabolism in rat liver extract; format: in vitro ADME, male Wistar rats; settings: pH 7.4, 37° C.; for remaining at 5 min / remaining at 0.25 h / remaining at 0.5 h / remaining at 1 h: rat liver extract; for remaining at 5 min: read-out: Residual amount of test compound, 5 min.; for remaining at 0.25 h: 15 min., read-out: Residual amount of test compound, 15 min.; for remaining at 0.5 h: 30 min., read-out: Residual amount of test compound, 30 min.; for remaining at 1 h: 60 min., read-out: Residual amount of test compound, 60 min.; for half-life: half-life in the rat liver extract, read-out: Half-time period
Description: 2. In vitro drug metabolism in rat liver extract
The resistance of the compound against metabolic degradation by rat liver extract was investigated.
The male Wistar rats (weighing about 200 g) were used after fasting for 24 hours. The rat was sacrificed under ether anesthesia, and the livers were removed and were placed onto the ice.
The liver was minced with scissors under ice-cooling, and homogenized in the presence of 4 volumes of 1.15% KCl-0.1M phosphate buffer (pH 7.4) with a Potter type homogenizer. The homogenates were centrifuged at 9,000×g for 10 minutes at 4° C., and the supernatant filtered through the cheese-cloth was used as an enzyme solution.
The constitution of the reaction mixture was shown in below. 0.1M Buffer was sufficiently bubbled in 95% O2 -5% CO2 gas before use.
Glucose 6-phosphate (60.8 mg.ml)
Nicotineamide (9.16 mg/ml)
The tested samples were dissolved in dimethyl sulfoxide. MgCl2 ·6H2 O was dissolved in a distilled water, and all other reagents were dissolved in 0.1M phosphate buffer. The reaction was initiated by adding enzyme solution, and shaked at 37° C. with 120 cycles/minutes in Spitz test tubes with stoppers. The reaction was stopped by adding methanol after 5, 15, 30 and 60 minutes.
After termination of the reaction, samples were mixed by using of a Vortex mixer, and centrifuged at 3,000 rpm for 10 minutes. The supernatant was applied to a high-performance liquid chromatography of which conditons are shown in below. A residual amount of the mother compound was determined at certain time intervals, whererby half-life of the compound in the rat liver extract was calculated.
Column: Chemcosorb 5C18-300 Å 4.6 mm diameter and 150 mm length
Colume temperature: 50° C.

SMILES | IC50 [1] [M] | remaining at 5 min [2] [%] | remaining at 0.25 h [2] [%] | remaining at 0.5 h [2] [%] | remaining at 1 h [2] [%] | half-life [2] [min]
Oc1ncnc2c(-c3ccc(Cc4cccc(Cl)c4)cc3)cnn12 [Example 21, 8-[4-(3-chlorophenylmethyl)phenyl]-4-hydroxypyrazolo[1,5-a]-1,3,5-triazine] | 1.1e-07 | – | – | – | – | –
Oc1ccnc2c(-c3ccc(Cc4ccc5c(c4)OCO5)cc3)cnn12 [Example 35, 7-hydroxy-4-[4-(3,4-methylenedioxyphenylmethyl)phenyl]pyrazolo[1,5-a]pyrimidine] | 2.2e-07 | – | – | – | – | –
COc1cc(Cc2ccc(-c3cnn4c(O)ncnc34)cc2)cc(OC)c1 [Example 32, 4-hydroxy-8-[4-(3,5-dimethoxyphenylmethyl)phenyl]pyrazolo[1,5-a]-1,3,5-triazine] | 7.7e-07 | – | – | – | – | –
COc1cccc(C(C)c2ccc(-c3cnn4c(O)ncnc34)cc2)c1 (stereo not drawn) [Example 23, 4-hydroxy-8-{4-[1-(3-methoxyphenyl)ethan-1-yl)phenyl}pyrazolo[1,5-a]-1,3,5-triazine] | 2.6e-08 | – | – | – | – | –
Oc1ncnc2c(-c3ccc(Cc4ccc5c(c4)OCO5)cc3)cnn12 [Example 31, 4-hydroxy-8-[4-(3,4-methylenedioxyphenylmethyl)phenyl]pyrazolo[1,5-a]-1,3,5-triazine] | 7.5e-07 | – | – | – | – | –
Cc1cc(-c2cnn3c(O)ncnc23)ccc1Sc1ccccc1 [Compound A2, reference compound] | – | 32.5 | 14.8 | 13.7 | 12.3 | 2.5
CC(C)(c1ccccc1)c1ccc(-c2cnn3c(O)ncnc23)cc1 [Example 33, 4-hydroxy-8-[4-(2-phenylporpan-2-yl)phenyl]pyrazolo[1,5-a]-1,3,5-triazine] | 1.2e-07 | – | – | – | – | –
Cc1cccc(Cc2ccc(-c3cnn4c(O)ncnc34)cc2)c1 [Example 13, 4-hydroxy-8-[4-(3-methylphenylmethyl)phenyl]pyrazolo[1,5-a]-1,3,5-triazine] | 1.2e-07 | 106 | 100 | 97.6 | 81.4 | > 60
Cc1cccc(Cc2ccc(-c3cnn4c(O)ncnc34)cc2C)c1 [Example 29, 4-hydroxy-8-[3-methyl-4-(3-methylphenylmethyl)phenyl]pyrazolo[1,5-a]-1,3,5-triazine] | 2e-08 | – | – | – | – | –
CC(C)(c1ccccc1)c1ccc(-c2cnn3c(O)ccnc23)cc1 [Example 34, 7-hydroxy-3-[4-(2-phenylpropan-2-yl)phenyl]pyrazolo[1,5-a]pyrimidinie] | 9e-08 | – | – | – | – | –
CCCC(c1ccccc1)c1ccc(-c2cnn3c(O)ncnc23)cc1 (stereo not drawn) [Example 20, 4-hydroxy-8-[4-(α-propylbenzyl)phenyl]pyrazolo[1,5-a]-1,3,5-triazine] | 2e-07 | – | – | – | – | –
COc1cc(-c2cnn3c(O)ccnc23)ccc1Sc1ccccc1 [Compound B2, reference compound] | – | 54.3 | 32.9 | 31.4 | 24.4 | 6.5
COc1cc(-c2cnn3c(O)ncnc23)ccc1Cc1ccc(C)cc1 [Example 8] | 1.1e-07 | – | – | – | – | –
Oc1ncnc2c(-c3ccc(Cc4ccc(Cl)cc4)cc3)cnn12 [Example 22, 8-[4-(4-chlorophenylmethyl)phenyl]-4-hydroxypyrazolo[1,5-a]-1,3,5-triazine] | 9.3e-08 | – | – | – | – | –
COc1cccc(Cc2ccc(-c3cnn4c(O)ccnc34)cc2OC)c1 [Example 24, 7-hydroxy-3-[3-methoxy-4-(3-methoxyphenylmethyl)phenyl]pyrazolo[1,5-a]pyrimidine] | 2.6e-08 | – | – | – | – | –
COc1cc(-c2cnn3c(O)ncnc23)ccc1Cc1ccccc1C [Example 7] | 6.2e-08 | – | – | – | – | –

SMILES | IC50 [1] [M] | remaining at 5 min [2] [%] | remaining at 0.25 h [2] [%] | remaining at 0.5 h [2] [%] | remaining at 1 h [2] [%] | half-life [2] [min]
COc1cc(-c2cnn3c(O)ncnc23)ccc1Sc1ccccc1 [Compound A3, reference compound] | – | 38.3 | 18.6 | 19.2 | 16.5 | 3
Oc1ncnc2c(-c3ccc(Cc4ccccc4)c(Cl)c3)cnn12 [Example 3, 8-(4-benzyl-3-chloro)phenyl-4-hydroxypyrazolo[1,5-a]-1,3,5-triazine] | 4e-07 | – | – | – | – | –
Cc1cccc(Cc2ccc(-c3cnn4c(O)ccnc34)cc2C)c1 [Example 30] | 2.5e-08 | – | – | – | – | –
COc1ccc(Cc2ccc(-c3cnn4c(O)ncnc34)cc2)cc1 [Example 18, 4-hydroxy-8-[4-(4-methoxyphenylmethyl)phenyl]pyrazolo[1,5-a]-1,3,5-triazine] | – | 96.5 | 86.2 | 71.6 | 52.4 | > 60
COc1ccccc1Cc1ccc(-c2cnn3c(O)ncnc23)cc1OC [Example 9] | 9.5e-08 | – | – | – | – | –
COc1cccc(Cc2ccc(-c3cnn4c(O)ncnc34)cc2C)c1 [Example 10, 4-hydroxy-8-[4-(3-methoxyphenylmethyl)-3-methyl]phenylpyrazolo[1,5-a]-1,3,5-triazine] | 1.2e-08 | 77.6 | 57.1 | 62 | 55.2 | > 60
Cc1cc(-c2cnn3c(O)ncnc23)ccc1Cc1ccccc1 [Example 5, 8-(4-benzyl-3-methyl)phenyl-4-hydroxypyrazolo[1,5-a]-1,3,5-triazine] | 3e-08 | 93.7 | 89.9 | 82.7 | 83.8 | > 60
Oc1ccnc2c(-c3ccc(Cc4ccccc4)cc3)cnn12 [Example 2, 3-(4-benzylphenyl)-7-hydroxypyrazolo[1,5-a]pyrimidine] | 2.8e-07 | 81.3 | 86.1 | 84.2 | 80.2 | > 60
CC(c1ccccc1)c1ccc(-c2cnn3c(O)ccnc23)cc1 (stereo not drawn) [Example 25, 7-hydroxy-3-[4-(α-methylbenzyl)phenyl]pyrazolo[1,5-a]pyrimidine] | 2.8e-08 | – | – | – | – | –
Cc1cc(-c2cnn3c(O)ccnc23)ccc1Sc1ccccc1 [Compound B1, reference compound] | – | 46.5 | 25.6 | 25.1 | 27 | 4.6
Oc1ncnc2c(-c3ccc(Sc4ccccc4)cc3)cnn12 [Compound A1, reference compound] | – | 32.3 | 13.8 | 13.1 | 13 | 2.4
COc1cccc(Cc2ccc(-c3cnn4c(O)ccnc34)cc2C)c1 [Example 26, 7-hydroxy-3-[4-(3-methoxyphenylmethyl)-3-methyl]phenylpyrazolo[1,5-a]pyrimidine] | 1.3e-08 | – | – | – | – | –
COc1ccccc1Cc1ccc(-c2cnn3c(O)ncnc23)cc1 [Example 17, 4-hydroxy-8-[4-(2-methoxyphenylmethyl)phenyl]pyrazolo[1,5-a]-1,3,5-triazine] | 8.7e-07 | – | – | – | – | –
Cc1ccc(Cc2ccc(-c3cnn4c(O)ncnc34)cc2)cc1 [Example 16, 4-hydroxy-8-[4-(4-methylphenylmethyl)phenyl]pyrazolo[1,5-a]-1,3,5-triazine] | 3e-07 | – | – | – | – | –
Cc1cccc(Cc2ccc(-c3cnn4c(O)ccnc34)cc2)c1 [Example 27, 7-hydroxy-3-[4-(3-methylphenylmethyl)phenyl]pyrazolo[1,5-a]pyrimidine] | 8.2e-08 | – | – | – | – | –
